How the values were obtained:
[1] = biological target: Protein arginine N-methyltransferase 1 (Homo sapiens, UniProt Q99873); assay: Selectivity interaction (Methyltransferase screen (radiometric assays, panel of 8 PRMTs, 21 protein lysine methyltransferases, 3 DNA methyltransferases, and one RNA methyltransferase)) EUB0000272b PRMT1
[2] = biological target: Serine/threonine-protein kinase/endoribonuclease IRE1 (Homo sapiens) (UniProt O75460); assay: Selectivity interaction (KinomeScan (DiscoverX)) EUB0000229b ERN1; conditions: at 10 µM
[3] = biological target: T1, Serine/threonine-protein kinase Nek9 (Homo sapiens) (UniProt Q8TD19); assay: Selectivity interaction (KinomeScan (DiscoverX)) EUB0000092b NEK9; conditions: at 10 µM
T1 sequence (whole entry): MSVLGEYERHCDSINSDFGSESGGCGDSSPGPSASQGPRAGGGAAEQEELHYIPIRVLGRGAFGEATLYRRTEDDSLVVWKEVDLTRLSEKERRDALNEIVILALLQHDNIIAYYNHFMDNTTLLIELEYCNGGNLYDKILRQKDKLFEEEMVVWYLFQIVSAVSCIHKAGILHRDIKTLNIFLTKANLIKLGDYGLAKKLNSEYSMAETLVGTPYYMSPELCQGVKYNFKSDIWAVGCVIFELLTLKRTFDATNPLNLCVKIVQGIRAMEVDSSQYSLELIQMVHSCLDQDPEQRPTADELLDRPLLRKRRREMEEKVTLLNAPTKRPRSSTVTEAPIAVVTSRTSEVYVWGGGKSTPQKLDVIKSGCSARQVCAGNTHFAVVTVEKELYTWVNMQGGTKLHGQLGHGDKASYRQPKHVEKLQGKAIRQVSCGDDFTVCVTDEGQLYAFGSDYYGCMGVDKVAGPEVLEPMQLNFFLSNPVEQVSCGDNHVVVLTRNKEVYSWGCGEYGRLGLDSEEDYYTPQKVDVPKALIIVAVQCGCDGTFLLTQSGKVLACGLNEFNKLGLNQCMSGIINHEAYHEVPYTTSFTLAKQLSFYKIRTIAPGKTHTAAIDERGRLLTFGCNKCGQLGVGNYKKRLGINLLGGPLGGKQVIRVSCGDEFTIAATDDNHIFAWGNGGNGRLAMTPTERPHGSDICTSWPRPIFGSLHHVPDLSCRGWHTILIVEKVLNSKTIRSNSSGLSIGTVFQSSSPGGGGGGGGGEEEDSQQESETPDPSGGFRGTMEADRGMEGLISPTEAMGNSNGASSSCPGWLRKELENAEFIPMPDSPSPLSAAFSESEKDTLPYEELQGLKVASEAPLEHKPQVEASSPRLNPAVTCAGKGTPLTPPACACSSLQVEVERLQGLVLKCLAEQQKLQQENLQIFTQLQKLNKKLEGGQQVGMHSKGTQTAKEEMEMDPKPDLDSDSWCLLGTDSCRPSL

[4] = biological target: Aurora kinase B (Homo sapiens, UniProt Q96GD4); assay: Selectivity interaction (KinomeScan (DiscoverX)) EUB0000092b AURKB; conditions: at 10 µM
[5] = biological target: Serine/threonine-protein kinase 25 (Homo sapiens) (UniProt O00506); conditions: at 10 µM
[6] = biological target: T2, Tyrosine-protein kinase Tec (Homo sapiens) (UniProt P42680); assay: Selectivity interaction (ActivX KiNativ screen (kinase selectivity in THP-1 cell lysates)) EUB0000639a TEC; type: subcellular; conditions: lysate, at 5 µM
T2 sequence (whole entry): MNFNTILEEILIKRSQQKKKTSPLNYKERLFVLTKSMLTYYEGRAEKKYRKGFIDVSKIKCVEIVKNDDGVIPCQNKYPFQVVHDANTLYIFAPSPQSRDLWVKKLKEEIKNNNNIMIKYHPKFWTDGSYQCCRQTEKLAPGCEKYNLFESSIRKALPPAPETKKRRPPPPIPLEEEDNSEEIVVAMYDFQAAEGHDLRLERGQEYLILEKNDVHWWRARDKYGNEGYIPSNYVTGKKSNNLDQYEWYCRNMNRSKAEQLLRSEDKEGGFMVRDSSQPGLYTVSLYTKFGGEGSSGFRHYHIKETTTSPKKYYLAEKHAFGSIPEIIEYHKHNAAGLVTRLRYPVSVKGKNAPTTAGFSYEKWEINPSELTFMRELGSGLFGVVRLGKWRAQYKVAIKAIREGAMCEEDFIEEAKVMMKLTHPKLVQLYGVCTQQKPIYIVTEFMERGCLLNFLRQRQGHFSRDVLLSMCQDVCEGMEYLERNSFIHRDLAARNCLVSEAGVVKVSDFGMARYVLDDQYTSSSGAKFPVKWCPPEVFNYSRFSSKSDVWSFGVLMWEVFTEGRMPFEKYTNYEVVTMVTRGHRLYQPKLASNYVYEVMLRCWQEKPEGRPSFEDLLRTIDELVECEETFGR

[7] = biological target: Misshapen-like kinase 1 (Homo sapiens, UniProt Q8N4C8); assay: Selectivity interaction (Kinase panel (Invitrogen)) EUB0000639a MINK1; conditions: at 200 nM
[8] = biological target: Cyclin-dependent kinase 5 (Homo sapiens, UniProt Q00535); assay: Selectivity interaction (KinomeScan (DiscoverX)) EUB0000595a CDK5; conditions: at 10 µM
[9] = biological target: T3, Serine/threonine-protein kinase ICK (Homo sapiens) (UniProt Q9UPZ9); assay: Selectivity interaction (KinomeScan (DiscoverX)) EUB0000045b ICK
T3 sequence (whole entry): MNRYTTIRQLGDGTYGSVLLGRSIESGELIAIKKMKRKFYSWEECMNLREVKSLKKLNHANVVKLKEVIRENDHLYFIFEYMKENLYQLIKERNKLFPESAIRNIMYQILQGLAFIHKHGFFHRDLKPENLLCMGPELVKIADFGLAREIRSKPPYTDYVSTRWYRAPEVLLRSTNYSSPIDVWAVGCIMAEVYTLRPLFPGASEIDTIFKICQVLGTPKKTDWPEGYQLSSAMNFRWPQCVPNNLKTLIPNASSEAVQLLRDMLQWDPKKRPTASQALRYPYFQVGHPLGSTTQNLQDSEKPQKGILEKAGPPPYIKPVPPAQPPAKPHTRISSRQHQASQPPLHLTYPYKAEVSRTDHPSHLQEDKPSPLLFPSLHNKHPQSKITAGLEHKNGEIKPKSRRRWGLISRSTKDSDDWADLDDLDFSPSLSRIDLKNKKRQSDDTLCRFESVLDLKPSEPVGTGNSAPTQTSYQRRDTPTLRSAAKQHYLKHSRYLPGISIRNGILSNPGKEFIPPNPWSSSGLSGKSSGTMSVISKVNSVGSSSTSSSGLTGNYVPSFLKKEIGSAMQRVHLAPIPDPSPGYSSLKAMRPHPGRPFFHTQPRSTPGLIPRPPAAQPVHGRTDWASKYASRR

Chain of Protein arginine N-methyltransferase 1 (Q99873 whole entry, looked up): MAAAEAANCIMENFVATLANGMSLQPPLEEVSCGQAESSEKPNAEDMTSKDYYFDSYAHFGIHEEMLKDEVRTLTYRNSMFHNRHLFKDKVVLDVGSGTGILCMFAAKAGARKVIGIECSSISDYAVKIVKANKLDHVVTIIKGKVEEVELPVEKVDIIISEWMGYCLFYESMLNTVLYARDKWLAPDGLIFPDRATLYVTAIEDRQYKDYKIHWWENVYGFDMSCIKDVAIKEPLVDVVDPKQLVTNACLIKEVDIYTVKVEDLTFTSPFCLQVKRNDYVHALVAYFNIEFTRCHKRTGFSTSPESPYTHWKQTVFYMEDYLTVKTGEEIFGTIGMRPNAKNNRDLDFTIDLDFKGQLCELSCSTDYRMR
Chain of Aurora kinase B (Q96GD4 whole entry): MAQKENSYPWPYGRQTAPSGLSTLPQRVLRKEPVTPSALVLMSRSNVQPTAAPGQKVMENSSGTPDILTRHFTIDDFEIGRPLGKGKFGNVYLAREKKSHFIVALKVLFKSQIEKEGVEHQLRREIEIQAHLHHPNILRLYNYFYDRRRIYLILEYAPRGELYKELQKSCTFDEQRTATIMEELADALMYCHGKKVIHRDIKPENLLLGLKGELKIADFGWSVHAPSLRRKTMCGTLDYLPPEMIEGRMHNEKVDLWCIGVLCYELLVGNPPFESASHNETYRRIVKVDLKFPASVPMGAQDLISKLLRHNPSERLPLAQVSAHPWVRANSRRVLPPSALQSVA
Chain of Serine/threonine-protein kinase/endoribonuclease IRE1 (Homo sapiens) (O75460 19-977 limits assumed): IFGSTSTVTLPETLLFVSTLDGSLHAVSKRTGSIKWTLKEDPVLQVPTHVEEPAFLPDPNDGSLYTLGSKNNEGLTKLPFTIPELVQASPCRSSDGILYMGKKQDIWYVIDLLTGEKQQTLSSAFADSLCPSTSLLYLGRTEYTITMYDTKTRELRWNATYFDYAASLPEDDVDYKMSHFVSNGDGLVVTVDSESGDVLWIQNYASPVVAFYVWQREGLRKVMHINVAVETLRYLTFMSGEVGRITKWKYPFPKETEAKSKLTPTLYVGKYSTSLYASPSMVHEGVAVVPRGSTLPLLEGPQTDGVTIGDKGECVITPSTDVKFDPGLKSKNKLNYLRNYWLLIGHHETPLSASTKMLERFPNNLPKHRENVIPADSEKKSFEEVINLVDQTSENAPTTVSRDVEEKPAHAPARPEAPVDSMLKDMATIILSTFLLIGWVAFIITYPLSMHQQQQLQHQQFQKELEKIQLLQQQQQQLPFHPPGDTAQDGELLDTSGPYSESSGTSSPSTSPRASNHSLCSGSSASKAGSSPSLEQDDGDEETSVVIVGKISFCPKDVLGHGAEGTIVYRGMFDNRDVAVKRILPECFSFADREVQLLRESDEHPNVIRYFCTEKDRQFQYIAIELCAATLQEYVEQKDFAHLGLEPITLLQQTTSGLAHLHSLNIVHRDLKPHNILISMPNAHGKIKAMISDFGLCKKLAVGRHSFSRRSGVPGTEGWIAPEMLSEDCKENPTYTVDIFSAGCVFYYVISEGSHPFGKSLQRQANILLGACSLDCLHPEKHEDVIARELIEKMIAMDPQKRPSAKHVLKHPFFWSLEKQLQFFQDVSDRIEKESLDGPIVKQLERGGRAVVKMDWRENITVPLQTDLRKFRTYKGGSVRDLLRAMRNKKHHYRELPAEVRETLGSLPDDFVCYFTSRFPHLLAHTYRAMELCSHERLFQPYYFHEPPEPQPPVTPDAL
Chain of Misshapen-like kinase 1 (Q8N4C8 whole entry, looked up): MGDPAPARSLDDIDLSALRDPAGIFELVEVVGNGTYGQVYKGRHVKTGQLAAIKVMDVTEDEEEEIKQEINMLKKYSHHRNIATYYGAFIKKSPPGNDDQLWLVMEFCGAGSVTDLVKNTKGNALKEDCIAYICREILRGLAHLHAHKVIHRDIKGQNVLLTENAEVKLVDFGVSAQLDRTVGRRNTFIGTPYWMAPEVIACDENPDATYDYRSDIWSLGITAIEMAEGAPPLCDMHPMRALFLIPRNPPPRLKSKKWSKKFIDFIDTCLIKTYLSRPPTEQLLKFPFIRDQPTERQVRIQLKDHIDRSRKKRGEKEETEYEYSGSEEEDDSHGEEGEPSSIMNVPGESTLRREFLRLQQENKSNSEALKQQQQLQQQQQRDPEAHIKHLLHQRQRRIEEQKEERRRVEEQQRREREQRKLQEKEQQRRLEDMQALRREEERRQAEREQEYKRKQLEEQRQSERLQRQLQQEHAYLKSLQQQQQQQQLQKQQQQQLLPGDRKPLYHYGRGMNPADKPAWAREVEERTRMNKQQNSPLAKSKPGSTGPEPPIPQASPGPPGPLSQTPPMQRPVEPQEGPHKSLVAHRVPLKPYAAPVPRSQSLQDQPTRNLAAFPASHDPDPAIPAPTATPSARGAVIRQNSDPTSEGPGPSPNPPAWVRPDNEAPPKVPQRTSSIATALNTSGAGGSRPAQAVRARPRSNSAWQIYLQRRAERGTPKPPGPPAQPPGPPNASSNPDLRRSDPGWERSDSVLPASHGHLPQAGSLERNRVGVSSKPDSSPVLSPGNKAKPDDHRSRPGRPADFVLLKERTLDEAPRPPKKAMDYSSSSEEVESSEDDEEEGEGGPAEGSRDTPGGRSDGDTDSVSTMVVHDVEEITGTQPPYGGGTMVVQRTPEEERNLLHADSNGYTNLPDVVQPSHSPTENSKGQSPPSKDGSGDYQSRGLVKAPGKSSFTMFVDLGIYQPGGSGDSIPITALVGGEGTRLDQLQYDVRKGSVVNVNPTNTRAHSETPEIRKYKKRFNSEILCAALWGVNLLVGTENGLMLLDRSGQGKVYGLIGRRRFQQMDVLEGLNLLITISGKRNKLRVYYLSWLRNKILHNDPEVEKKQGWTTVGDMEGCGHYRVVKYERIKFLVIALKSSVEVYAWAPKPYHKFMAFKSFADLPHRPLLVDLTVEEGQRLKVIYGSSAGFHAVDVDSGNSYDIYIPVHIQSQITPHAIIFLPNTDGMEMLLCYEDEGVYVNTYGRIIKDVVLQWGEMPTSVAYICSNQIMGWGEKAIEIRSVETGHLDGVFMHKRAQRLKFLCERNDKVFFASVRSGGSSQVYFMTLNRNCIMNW
Chain of Cyclin-dependent kinase 5 (Q00535 whole entry, looked up): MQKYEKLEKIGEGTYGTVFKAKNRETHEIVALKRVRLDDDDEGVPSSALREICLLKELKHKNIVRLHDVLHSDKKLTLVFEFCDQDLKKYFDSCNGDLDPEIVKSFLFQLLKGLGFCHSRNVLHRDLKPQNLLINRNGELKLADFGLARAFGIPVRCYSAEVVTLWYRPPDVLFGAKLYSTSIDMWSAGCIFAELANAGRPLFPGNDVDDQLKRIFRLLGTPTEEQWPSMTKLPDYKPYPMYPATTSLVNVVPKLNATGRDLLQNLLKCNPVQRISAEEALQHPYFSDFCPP
Chain of Serine/threonine-protein kinase 25 (Homo sapiens) (O00506 whole entry, looked up): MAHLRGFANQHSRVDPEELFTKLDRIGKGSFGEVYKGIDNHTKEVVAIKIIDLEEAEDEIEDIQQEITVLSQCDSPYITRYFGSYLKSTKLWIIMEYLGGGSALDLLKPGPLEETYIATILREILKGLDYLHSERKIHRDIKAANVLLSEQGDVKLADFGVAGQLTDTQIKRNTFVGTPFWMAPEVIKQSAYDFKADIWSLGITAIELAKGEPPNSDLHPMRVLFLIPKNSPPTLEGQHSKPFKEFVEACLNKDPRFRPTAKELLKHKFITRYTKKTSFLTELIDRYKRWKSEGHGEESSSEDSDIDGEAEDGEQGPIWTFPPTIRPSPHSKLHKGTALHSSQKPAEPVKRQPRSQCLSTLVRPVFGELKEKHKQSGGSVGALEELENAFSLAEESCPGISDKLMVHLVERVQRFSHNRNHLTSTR

`Cc1cc(C)cc([C@H]2c3cc(C)ccc3NC(=O)CN2C(=O)c2ccc(Br)s2)c1` was tested, and the % of activity ([1]; at 1 µM) was 98.7% and the % of activity ([1]; at 10 µM) was 101%.

For `COc1cc(N(C)c2ccnc3ccc(C(F)(F)F)cc23)cc(OC)c1OC`, the % binding [2] was 70%.

`CCC(=O)N1CCN(c2ccc(-n3c(=O)ccc4cnc5ccc(-c6cnc7ccccc7c6)cc5c43)cc2C(F)(F)F)CC1` was tested, and the % of control [3] was 100% and the % of control [4] was 82%.

`Cc1cc([C@@H](C)Nc2ccccc2C(=O)O)c2nc(N3CCOCC3)cc(=O)n2c1` [AZD-6482] was tested, and the % of control [5] was 76%.

Molecule `CC[C@@H]1[C@H](F)C(=O)N[C@@H]1COc1nccc2cc(C(N)=O)c(OC)cc12` [ZIMLOVISERTIB] has a % of inhibition [6] of -18.7% and a % of inhibition [7] of 18.8%.

Molecule `COCC(=O)NC/C=C/c1ccc2ncnc(Nc3ccc(Oc4ccc(C)nc4)c(C)c3)c2c1` [CP-724714] has a % of control [8] of 100%.

In the case of `C=CC(=O)Nc1cc(-n2c(=O)ccc3cnc4ccc(-c5ccc(NS(C)(=O)=O)cc5)cc4c32)ccc1C`, the % of control ([9]; at 1 µM) is reported as 100% and the % of control ([9]; at 10 µM) is reported as 100%.

Reference: ChEMBL document CHEMBL5465560, “Selectivity Literature for EUbOPEN Chemogenomic Library” (2024)
